Experimental findings from US9765297B2, “Stem cell-based culture system for drug development” (THE TRUSTEES OF COLUMBIA UNIVERSITY IN THE CITY OF NEW YORK, priority 2007, dated 2017) are described below.

Test [1] concerns motor neurons on mutant SOD1 astrocyte layer. Put plainly: Motor neuron / mutant SOD1 astrocyte co-cultures incubated with CNQX or Fas-Fc (FIG. 11c,d). It is filed as cell-based, mouse. The note with it: 100 μM CNQX. As to the method:
FIG. 11a-e. Glutamate, Fas ligand and several major cytokines and chemokines are not involved in the toxicity of mutant SOD1 astrocytes to motor neurons. […] (b) 14 d-old-confluent ^NTgAML or ^G93AAML were incubated with 200 μM of glutamate. Then, the extracellular concentration of glutamate was monitored by HPLC at 0, 0.5, 1, 3, 6 and 24 hr. No interaction was found between the timing of glutamate decrease in the medium and the genotypes of the two astrocyte layers (F[2.241]=0.430; P=0.826; ANOVA). […] (e) The relative contents of 19 cytokines/chemokines were screened by array in CMd from G93A and NTg astrocytes. The genotypic differences were highlighted in bold. […]
Results are expressed as mean±standard error of the mean (s.e.m.) for 3-6 independent experiments. […] Each coverslip was counted at ×100 under fluorescent examination in its entirety. To determine the proportion of dying or apoptotic neurons, ≧750 MAP2^+ neurons were counted per culture. Differences between means were analyzed by a two-tailed Student's t-test whereas among means by one- or two-way ANOVA with the different types of mice, treatment doses, or time as the independent factors. […] For morphometry studies, differences were analyzed by Kolmogorov-Smimov test (www.physics.csbsju.edu/stats/KS-test.n.plot_form.html). […]

In test [2] the test system is ESMN plated on G93A AML. Nature of the test: Co-culture of embryonic stem cell-derived motor neurons (ESMN) on mutant SOD1 G93A astrocyte monolayers with pharmacological treatment; survival and death counted at 7 d. It is filed as cell-based, mouse. The note with it: 7 d post-plating, V5 50-200 μM, zVAD-fmk 10-20 μM; for percentages of surviving ESMN: ESMN on G93A AML, vs vehicle; for percentages of ESMN / MAP2+ neurons labeled with EthD (dying cells) / percentages of embryonic stem cell-derived MAP2+/fractin+ neurons (apoptosis): G93A AML co-cultures, vs vehicle (DMSO), added daily. How it is done: Glial monolayers were prepared from spinal cord from transgenic SOD^G93A, SOD^G37R, SOD^G85R, SOD^WT of newborn pups as described by Silva and collaborators^31. Cell suspensions were plated in glial medium: Dubelco Modified Eagle's medium (DMEM; Invitrogen, Carlsbad, Calif.) containing 10% fetal bovine serum (FBS; Invitrogen), 100 U/mL penicillin and 100 μg/mL streptomycin (penicillin/streptomycin, Invitrogen). After 2 weeks, glial cultures contained 95% of glial acidic fibrillary protein (GFAP)^+ astrocytes, 5% of CD11b^+ microglia, and no neuron or oligodendrocyte as indicated by the lack of respectively MAP2 or 2′-3′-cyclic nucleotide phosphohydrolase immunoreactivity (data not shown). To eliminate residual microglia, 2-week-old flasks were agitated (200 rpm; 6 h) and astrocytes were detached by 0.25% trypsin (Invitrogen) and plated onto coverslips at a density of 20,000 cells/cm^2.
Cells were derived from Hlxb9-GFP1Tmj transgenic mice^13 and differentiated into ESMN as described previously^13. To form EBs, cells were grown for 2 d in 1:1 (v/v) DMEM/Ham's F-12 media (Invitrogen) medium containing B27 supplement (Invitrogen), penicillin/streptomycin and 0.1 mM β-mercaptoethanol (Sigma, Saint Louis, Mo.). They were treated with 1 μM retinoic acid (Sigma) and 400 nM sonic hedgehog agonist (Hh-Ag1.3, Curls Inc., Cambridge, Mass.) for 5 d and dissociated with papain (Worthington, Lakewood, N.J.). Cells were plated at 1,600 eGFP-positive cells/cm^2 in motor neuron medium: Neurobasal medium (Invitrogen) containing 2% horse serum (heat inactivated; Invitrogen), B27 supplement, 0.5 mM glutamine (Invitrogen), 25 μM β-mercaptoethanol, penicillin/streptomycin. To obtain LH2-positive neurons, once EBs were formed they were treated with 0.1 μM retinoic acid and 15 ng/mL bone morphogenetic protein 4 (R&D systems, Minneapolis, Minn.) for 5 d before papain dissociation. Then, 1,500 cells/cm^2 were plated onto astrocyte monolayer in motor neuron medium.
For EthD (Molecular Probes) estimation of death, cells were incubated with 2 μM EthD (diluted in D-PBS; 45 min; RT) as we previously reported^36. For immunocytochemistry and the other cell labelings, cells were processed as we previously described^36. Primary antibodies used were: rabbit polyclonal anti-eGFP (1:2000; Molecular Probes), anti-fractin (1:5000; BD Pharmingen, San Jose, Calif.), GABA (1:2000; Chemicon), anti-Lim2 (1:150; from Dr. Jessell's lab), and anti-HB9 (1:1000 from T M Jessell's lab); goat polyclonal anti-ChAT (1:100; Chemicon, Temecula, Calif.); sheep polyclonal anti-SOD1 (1:500; Calbiochem), rabbit anti-protein gene product 9.5 (PG-P 9.5; 1:2000; Chemicon) and mouse monoclonal anti-MAP-2 (1:1000; Chemicon), anti-GFAP (1:1000; Sigma), anti-Islet 1/2 (1:100; from TM Jessell's lab), anti-LH2 (1:2; from T M Jessell's lab), and anti-SMI-32 for non-phosphorylated neurofilament heavy chain (1:1000, Sternberger monoclonals, Lutherville, Md.). Terminal deoxy-UTP nick-end labeling (Tunel, in situ cell death detection kit, Roche Diagnostic, Indianapolis, Ind.) were performed following the manufacturer's recommendations.
zVAD-fmk and V5 (Sigma) were dissolved in DMSO and add to co-cultures to final concentrations ranging from 10-20 μM for the former and 50-200 μM for the latter. Fresh drugs were added daily. Cell survival and death were evaluated at 7 d by counting eGFP^+/HB9^+ neurons, and EthD- and fractin-labeled cells as described below.
Results are expressed as mean±standard error of the mean (s.e.m.) for 3-6 independent experiments. Each experiment corresponds ≧3 transgenic and non-transgenic co-cultures from the same litter and 3 coverslips per time point and per condition. Each coverslip was counted at ×100 under fluorescent examination in its entirety. To determine the proportion of dying or apoptotic neurons, ≧750 MAP2^+ neurons were counted per culture. […]

“Also recorded” adds a separate entry of the source. Where a SMILES comes first, the peptide text is derived from it. The star is where a group is joined. Cbz = O=C(OCc1ccccc1)*; CH2F = FC*

As for `N#Cc1cc2[nH]c(=O)c(=O)[nH]c2cc1[N+](=O)[O-]` [CNQX], the “mutant SOD1 astrocyte-mediated motor neuron death” value in test [1] was “did not influence”.

Take `COC(=O)C[C@H](NC(=O)[C@H](C)NC(=O)[C@@H](NC(=O)OCc1ccccc1)C(C)C)C(=O)CF` [zVAD-fmk] (Cbz-Val-Ala-Asp(OMe)-CH2F): in test [2], the “percentages of surviving ESMN” value is “failed to improve”, the “percentages of ESMN / MAP2+ neurons labeled with EthD (dying cells)” value was “had no effect” and the “percentages of embryonic stem cell-derived MAP2+/fractin+ neurons (apoptosis)” value is “decreased”. Moreover, in test [2] (listed as zVAD.fmk), the “percentages of surviving ESMN” value was “had no effect”.

Take VPMLK [V5]: in test [2], the “percentages of surviving ESMN” value is recorded as “augmented; also recorded: increases”, the “percentages of ESMN / MAP2+ neurons labeled with EthD (dying cells)” value is recorded as “diminished; also recorded: decreases” and the “percentages of embryonic stem cell-derived MAP2+/fractin+ neurons (apoptosis)” value is listed as “reduced specifically; also recorded: decreases; also recorded: inhibited apoptosis”.
